Data reported in patent US20110224210A1, “NOVEL BIS-AMIDES AS ANTI-MALARIAL AGENTS” (priority 2008, published 2011).
Like-named read-outs stand apart in the source and are kept apart here.

Tested on: P. falciparum K1 (strain resistant to chloroquine and pyrimethamine), erythrocytic stages
Assay: Plasmodium falciparum in vitro assay, [3H] hypoxanthine incorporation
Type: cell-based
Conditions: [3H] hypoxanthine incorporation, read-out: IC50 (nM) on K1
Description: In Vitro Antimalarial Activity: Plasmodium falciparum In Vitro Assay
In vitro activity against erythrocytic stages of P. falciparum is determined using a [^3H] hypoxanthine incorporation assay. One strain resistant to chloroquine and pyrimethamine (P. falciparum K1) is used in the assays, and all test compounds are compared for activity with the standard drugs chloroquine (sigma C6628) and artemisinin (sigma-36, 159-3). Compounds are diluted in DMSO to 1 mM and added to parasite cultures incubated in RPMI 1640 medium without hypoxanthine, supplemented with HEPES (5.94 g/L), NaHCO3 (2.1 g/L), neomycin (100 U/mL), Albumax (5 g/L) and washed human red cells at 2.5% haematocrit (0.3% parasitaemia). Seven serial doubling dilutions of each compound are prepared in 96-well microtitre plates and incubated in a humidifying atmosphere at 37° C.; 4% CO2, 3% O2, 93% N2.
After 48 h, 50 μl of [3H] hypoxanthine (0.5 μCi) is added to each well of a plate. The plates are incubated for a further 24 h under the same conditions. The plates are then harvested with a Betaplate cell harvester (Wallac) and washed with distilled water. The dried filters are inserted into a plastic foil with 10 mL of scintillation fluid, and counted in a Betaplate liquid scintillation counter. IC50 values are calculated from sigmoidal inhibition curves using Microsoft Excel.

[1] = Plasmodium falciparum, K1, P. falciparum strain K1

Row | IC50 [1] [nM] | IC50 (P. falciparum strain K1) [nM] | SMILES
1 | 55 | – | CC(=O)N1CCN(c2ccc(CN(C(=O)C=Cc3ccc(C(F)(F)F)cc3)[C@@H](Cc3ccccc3)C(=O)N(C)CCN(C)Cc3ccc(N(C)CCO)cc3)cc2)CC1 [Example 237, (S)-N-[4-(4-Acetyl-piperazin-1-yl)-benzyl]-N-(1-{[2-({4-[(2-hydroxy-ethyl)-methyl-amino]-benzyl}-methyl-amino)-ethyl]-methyl-carbamoyl}-2-phenyl-ethyl)-3-(4-trifluoromethyl-phenyl)-acrylamide]
2 | – | 89 | CC(=O)N1CCN(c2ccc(CN(C(=O)C=Cc3ccc(C(F)(F)F)cc3)[C@@H](Cc3ccccc3)C(=O)N(C)CCOCc3ccc(C)cc3C)cc2)CC1 [Example 194, (S)-N-[4-(4-Acetyl-piperazin-1-yl)-benzyl]-N-(1-{[2-(2,4-dimethyl-benzyloxy)-ethyl]-methyl-carbamoyl}-2-phenyl-ethyl)-3-(4-trifluoromethyl-phenyl)-acrylamide]
3 | 52 | – | CN(CCN(C)C(=O)[C@H](Cc1ccccc1)N(Cc1ccc(-c2ccccn2)cc1)C(=O)C=Cc1ccc(C(F)(F)F)cc1)Cc1ccc(Br)o1 [Example 219, (S)-N-[1-({2-[(5-Bromo-furan-2-ylmethyl)-methyl-amino]-ethyl}-methyl-carbamoyl)-2-phenyl-ethyl]-N-(4-pyridin-2-yl-benzyl)-3-(4-trifluoromethyl-phenyl)-acrylamide]
4 | 448 | – | COCCN(C)C(=O)C(Cn1ccnc1)N(Cc1ccc(-c2ccccn2)cc1)C(=O)C=Cc1ccc(C(F)(F)F)cc1 (racemic) [Example 281]
5 | 9 | – | COCCN(C)C(=O)[C@H](Cc1ccccc1)N(Cc1ccc(N2CCOCC2)cc1)C(=O)C=Cc1ccc(C(F)(F)F)cc1 [Example 179, (S)-N-{1-[(2-Methoxy-ethyl)-methyl-carbamoyl]-2-phenyl-ethyl}-N-(4-morpholin-4-yl-benzyl)-3-(4-trifluoromethyl-phenyl)-acrylamide, formic acid]
6 | 14 | – | CN(CCN(C)C(=O)[C@H](Cc1ccccc1)N(Cc1ccc(N2CCOCC2)cc1)C(=O)C=Cc1ccc(C(F)(F)F)cc1)Cc1cccc(OCCO)c1 [Example 260, (S)-N-{1-[(2-{[3-(2-Hydroxy-ethoxy)-benzyl]-methyl-amino}-ethyl)-methyl-carbamoyl]-2-phenyl-ethyl}-N-(4-morpholin-4-yl-benzyl)-3-(4-trifluoromethyl-phenyl)-acrylamide]
7 | < 8 | – | COCCN(C)C(=O)C(CN1CCOCC1)N(Cc1ccc(-c2ccccn2)cc1)C(=O)C=Cc1ccc(C(F)(F)F)cc1 (racemic) [Example 279]
8 | 47 | – | COCCNc1ccc(CN(C)C(=O)[C@H](Cc2ccccc2)N(Cc2ccc(N3CCOCC3)cc2)C(=O)C=Cc2ccc(C(F)(F)F)nc2)cc1 [Example 277]
9 | 13 | – | COc1ccc(COCCN(C)C(=O)[C@H](Cc2ccccc2)N(Cc2ccc(N3CCN(C(C)=O)CC3)cc2)C(=O)C=Cc2ccc(C(F)(F)F)cc2)cc1F [Example 184, (S)-N-[4-(4-Acetyl-piperazin-1-yl)-benzyl]-N-(1-{[2-(3-fluoro-4-methoxy-benzyloxy)-ethyl]-methyl-carbamoyl}-2-phenyl-ethyl)-3-(4-trifluoromethyl-phenyl)-acrylamide, formic acid]
10 | 319 | – | CCCCN(CCCC)CCNC(=O)[C@H](Cc1ccccc1)N(Cc1ccc(-c2ccccn2)cc1)C(=O)C=Cc1ccc(C(F)(F)F)cc1 [Example 150]
11 | 40 | – | CC(=O)N1CCN(c2ccc(CN(C(=O)C=Cc3ccc(C(F)(F)F)cc3)[C@@H](Cc3ccccc3)C(=O)N(C)CCOCC3CC3)cc2)CC1 [Example 207, (S)-N-[4-(4-Acetyl-piperazin-1-yl)-benzyl]-N-{1-[(2-cyclopropylmethoxy-ethyl)-methyl-carbamoyl]-2-phenyl-ethyl}-3-(4-trifluoromethyl-phenyl)-acrylamide]
12 | 74 | – | CN(C)C1CCN(C(=O)[C@H](Cc2ccccc2)N(Cc2ccc(N3CCOCC3)nc2)C(=O)C=Cc2ccc(C(F)(F)F)cc2)CC1 [Example 136, (S)-N-[1-Benzyl-2-(4-dimethylamino-piperidin-1-yl)-2-oxo-ethyl]-N-(6-morpholin-4-yl-pyridin-3-ylmethyl)-3-(4-trifluoromethyl-phenyl)-acrylamide]
13 | 10 | – | COCCN(C)C(=O)[C@H](Cc1ccccc1)N(Cc1ccc(N2CCN(C(C)=O)CC2)cc1)C(=O)C=Cc1ccc(C(F)(F)F)cc1 [Example 178, (S)-N-[4-(4-Acetyl-piperazin-1-yl)-benzyl]-N-{1-[(2-methoxy-ethyl)-methyl-carbamoyl]-2-phenyl-ethyl}-3-(4-trifluoromethyl-phenyl)-acrylamide]

The next lines start with the molecule.

Row | SMILES | IC50 [1] [nM] | IC50 (P. falciparum strain K1) [nM]
14 | Cc1nc(C)c(C=CC(=O)N(Cc2ccc(N3CCOCC3)cc2)[C@@H](Cc2ccccc2)C(=O)N2CCC(N(C)C)CC2)s1 [Example 2, (S)-N-[1-Benzyl-2-(4-dimethylamino-piperidin-1-yl)-2-oxo-ethyl]-3-(2,4-dimethyl-thiazol-5-yl)-N-(4-morpholin-4-yl-benzyl)-acrylamide] | 466 | –
15 | COCCN(C)C(=O)[C@H](Cc1ccccc1)N(Cc1ccc(-c2ccccn2)cc1)C(=O)C=Cc1ccc(OC)nc1 [Example 87, (S)-N-{1-[(2-Methoxy-ethyl)-methyl-carbamoyl]-2-phenyl-ethyl}-3-(6-methoxy-pyridin-3-yl)-N-(4-pyridin-2-yl-benzyl)-acrylamide] | < 8 | –
16 | CC(=O)N1CCN(c2ccc(CN(C(=O)C=Cc3ccc(C(F)(F)F)cn3)[C@@H](Cc3ccccc3)C(=O)N3CCC(N(C)C)CC3)cc2)CC1 [Example 35, (S)-N-[4-(4-Acetyl-piperazin-1-yl)-benzyl]-N-[1-benzyl-2-(4-dimethylamino-piperidin-1-yl)-2-oxo-ethyl]-3-(5-trifluoromethyl-pyridin-2-yl)-acrylamide] | 317 | –
17 | COc1ccc(C=CC(=O)N(Cc2ccc(N3CCN(C(C)=O)CC3)cc2)[C@@H](Cc2ccccc2)C(=O)N2CCC(N(C)C)CC2)cn1 [Example 34, (S)-N-[4-(4-Acetyl-piperazin-1-yl)-benzyl]-N-[1-benzyl-2-(4-dimethylamino-piperidin-1-yl)-2-oxo-ethyl]-3-(6-methoxy-pyridin-3-yl)-acrylamide] | 433 | –
18 | COCCN(C)C(=O)[C@H](Cc1ccccc1)N(Cc1ccc(N2CCN(C(C)=O)CC2)cc1)C(=O)C=Cc1c(C)nn(C)c1C [Example 105, (S)-N-[4-(4-Acetyl-piperazin-1-yl)-benzyl]-N-{1-[(2-methoxy-ethyl)-methyl-carbamoyl]-2-phenyl-ethyl}-3-(1,3,5-trimethyl-1H-pyrazol-4-yl)-acrylamide] | 44 | –
19 | COCCN(C)C(=O)[C@H](Cc1ccccc1)N(Cc1ccc(N2CCOCC2)cc1)C(=O)C=Cc1c(C)noc1C [Example 64, (S)-3-(3,5-Dimethyl-isoxazol-4-yl)-N-{1-[(2-methoxy-ethyl)-methyl-carbamoyl]-2-phenyl-ethyl}-N-(4-morpholin-4-yl-benzyl)-acrylamide] | 180 | –
20 | Cc1ccc(C=CC(=O)N(Cc2ccc(-c3ccccn3)cc2)[C@@H](Cc2ccccc2)C(=O)N2CCC(N(C)C)CC2)nc1 [Example 15, (S)-N-[1-Benzyl-2-(4-dimethylamino-piperidin-1-yl)-2-oxo-ethyl]-3-(5-methyl-pyridin-2-yl)-N-(4-pyridin-2-yl-benzyl)-acrylamide] | 163 | –
21 | COCCN(C)C(=O)[C@H](Cc1ccccc1)N(Cc1ccc(-c2ccccn2)cc1)C(=O)C=Cc1cnc(C(F)(F)F)nc1 [Example 88, (S)-N-{1-[(2-Methoxy-ethyl)-methyl-carbamoyl]-2-phenyl-ethyl}-N-(4-pyridin-2-yl-benzyl)-3-(2-trifluoromethyl-pyrimidin-5-yl)-acrylamide] | 45 | –
22 | Cc1noc(C)c1C=CC(=O)N(Cc1ccc(-c2ccncc2)cc1)[C@@H](Cc1ccccc1)C(=O)N1CCC(N(C)C)CC1 [Example 24, (S)-N-[1-Benzyl-2-(4-dimethylamino-piperidin-1-yl)-2-oxo-ethyl]-3-(3,5-dimethyl-isoxazol-4-yl)-N-(4-pyridin-4-yl-benzyl)-acrylamide] | 103 | –
23 | Cc1noc(C)c1C=CC(=O)N(Cc1ccc(-c2ccccn2)cc1)[C@@H](Cc1ccccc1)C(=O)N1CCC(N(C)C)CC1 [Example 12, (S)-N-[1-Benzyl-2-(4-dimethylamino-piperidin-1-yl)-2-oxo-ethyl]-3-(3,5-dimethyl-isoxazol-4-yl)-N-(4-pyridin-2-yl-benzyl)-acrylamide] | 220 | –
24 | COCCN(C)C(=O)[C@H](Cc1ccccc1)N(Cc1ccc(-c2cncnc2)cc1)C(=O)C=Cc1cnc(OC)nc1 [Example 129, (S)-N-{1-[(2-Methoxy-ethyl)-methyl-carbamoyl]-2-phenyl-ethyl}-3-(2-methoxy-pyrimidin-5-yl)-N-(4-pyrimidin-5-yl-benzyl)-acrylamide] | 19 | –
25 | COCCN(C)C(=O)[C@H](Cc1ccccc1)N(Cc1ccc(-c2cncnc2)cc1)C(=O)C=Cc1csnn1 [Example 125, (S)-N-{1-[(2-Methoxy-ethyl)-methyl-carbamoyl]-2-phenyl-ethyl}-N-(4-pyrimidin-5-yl-benzyl)-3-[1,2,3]thiadiazol-4-yl-acrylamide] | 439 | –
